Results published in patent US20150320880A1, “ANTIBODY DRUG CONJUGATES” (NOVARTIS AG, priority 2013, published 2015).

B1: NEG087 (antibody, human IgG1, kappa, V domains shown)
VH: EVQLVESGGGLVQPGGSLRLSCAASGFTFSDYYMAWVRQAPGKGLEWVASINQNTGSTYYLDSVRGRFTISRDNAKNSLYLQMNSLRAEDTAVYYCARGDYYGTTYWYFDVWGQGTTVTVSS
VL: DIQMTQSPSSLSASVGDRVTITCRASQSISSYLNWYQQKPGKAPKLLIYYTSRLQSGVPSRFSGSGSGTDFTLTISSLQPEDFATYYCQQGRRLWSFGGGTKVEIKR
notes: Humanized, optimized variant of 9P3; human IgG1 kappa
B2: NEG027 (antibody, human IgG1, kappa, V domains shown)
VH: B1 VH
VL: EIVMTQSPATLSLSPGERATLSCRASQDISNYLNWYQQKPGQAPRLLIYYTSRLQSGIPARFSGSGSGTDYTLTISSLEPEDFAVYYCQQGKKLWSFGGGTKVEIKR
notes: as for B1

Columns and labels:
GIST882 cell line = test: Combination dose-matrix cell viability (CellTiter Glo, Loewe model); type: cell-based; settings: NEG085-MCC-DM1 in combination with the compound, 120 h
Protocol: (§1) Relative inhibition of cell viability was calculated for every dose combination. […] Excess inhibition compared to additivity can be plotted as a full dose-matrix chart to visualize the drug concentrations where synergies occur. Synergistic combinations produced regions of excess inhibition within the dose-matrix. […] “Additivity” was found when the combination generated the same inhibition of cell viability response when compared to the response with the single agent by itself “Synergy” was indicated when the inhibition of cell viability was greater than the response of the single agent compared with itself. Alternatively, “Additivity” was indicated with a Loewe score of less than 5, and “Synergy” was indicated by a Loewe score of greater than 5.
(§2) Cell viability was determined by measuring cellular ATP content using the CellTiter Glo luminescence assay (Promega, Madison Wis.). One day before drug addition, 250-500 GIST cells from 2 different cell lines were plated into 384-well plates (Greiner, Monroe, N.C.) in 20 μl growth media.

GIST430 cell line = test: as above; type: cell-based; settings: NEG085-MCC-DM1 in combination with the compound, 120 h
Protocol: as §1, §2

[1] = tested on: HAMLX5343 systemic primary AML xenograft
[2] = target: T1, Mouse cKIT ECD, C-terminal 6x His (Sino Biological Inc, catalog number 50530-M08H) (mouse, UniProt P05532 25-527); test: SPR (Biacore 2000), antibody captured on anti-human Fc
T1 construct: extracellular domain; Bought protein
T1 sequence (looked up): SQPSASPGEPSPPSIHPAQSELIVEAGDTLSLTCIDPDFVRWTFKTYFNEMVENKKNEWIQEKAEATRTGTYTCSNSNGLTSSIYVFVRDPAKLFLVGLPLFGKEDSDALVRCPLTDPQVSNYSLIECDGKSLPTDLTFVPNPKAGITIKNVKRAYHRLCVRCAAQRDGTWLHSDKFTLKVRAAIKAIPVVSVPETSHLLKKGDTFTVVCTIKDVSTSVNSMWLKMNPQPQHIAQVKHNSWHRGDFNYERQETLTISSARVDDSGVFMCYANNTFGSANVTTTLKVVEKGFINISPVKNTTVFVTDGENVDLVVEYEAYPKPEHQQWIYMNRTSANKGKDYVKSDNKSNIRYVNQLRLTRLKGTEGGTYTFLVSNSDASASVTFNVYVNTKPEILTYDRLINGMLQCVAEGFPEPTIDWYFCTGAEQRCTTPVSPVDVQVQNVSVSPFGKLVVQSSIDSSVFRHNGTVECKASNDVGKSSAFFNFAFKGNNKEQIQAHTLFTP

[3] = target: T2, Rat cKIT D1-5 (residues 25-526, C-terminal mFc) (rat); test: as above
T2 construct: The entry includes the linker and mouse Fc tag; also called rat cKIT-mFc
T2 chain: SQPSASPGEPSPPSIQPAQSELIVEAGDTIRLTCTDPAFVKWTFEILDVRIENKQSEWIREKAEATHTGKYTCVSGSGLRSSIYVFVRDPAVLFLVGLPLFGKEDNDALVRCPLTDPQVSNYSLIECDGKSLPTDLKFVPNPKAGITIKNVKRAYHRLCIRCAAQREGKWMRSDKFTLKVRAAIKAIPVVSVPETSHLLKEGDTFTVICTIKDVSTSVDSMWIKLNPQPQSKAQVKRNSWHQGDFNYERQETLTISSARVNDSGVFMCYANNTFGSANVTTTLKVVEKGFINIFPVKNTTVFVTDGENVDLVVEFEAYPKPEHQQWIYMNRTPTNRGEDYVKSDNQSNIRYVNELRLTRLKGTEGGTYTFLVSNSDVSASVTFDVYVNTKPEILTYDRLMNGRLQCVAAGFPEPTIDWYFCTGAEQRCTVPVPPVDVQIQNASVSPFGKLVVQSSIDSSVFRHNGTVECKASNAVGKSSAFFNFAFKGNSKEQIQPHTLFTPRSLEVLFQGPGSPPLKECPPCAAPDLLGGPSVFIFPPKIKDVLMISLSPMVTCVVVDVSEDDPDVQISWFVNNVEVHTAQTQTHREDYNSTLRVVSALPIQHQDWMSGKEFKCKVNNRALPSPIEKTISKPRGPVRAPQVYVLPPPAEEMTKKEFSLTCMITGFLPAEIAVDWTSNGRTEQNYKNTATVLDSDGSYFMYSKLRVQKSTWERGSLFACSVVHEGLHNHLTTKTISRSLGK

[4] = target: T3, Cynomolgus monkey cKIT D1-5 (residues 25-520, C-terminal His tag) (cynomolgus monkey, UniProt P10721 25-520 (human entry)); test: SPR (Biacore 2000), antibody captured on anti-human Fc, cKIT ECD as analyte, 25 C, 1:1 fit
T3 construct: the signal peptide was not part of the protein in the assay; also called cyno cKIT; cynomolgus monkey ECD
T3 chain: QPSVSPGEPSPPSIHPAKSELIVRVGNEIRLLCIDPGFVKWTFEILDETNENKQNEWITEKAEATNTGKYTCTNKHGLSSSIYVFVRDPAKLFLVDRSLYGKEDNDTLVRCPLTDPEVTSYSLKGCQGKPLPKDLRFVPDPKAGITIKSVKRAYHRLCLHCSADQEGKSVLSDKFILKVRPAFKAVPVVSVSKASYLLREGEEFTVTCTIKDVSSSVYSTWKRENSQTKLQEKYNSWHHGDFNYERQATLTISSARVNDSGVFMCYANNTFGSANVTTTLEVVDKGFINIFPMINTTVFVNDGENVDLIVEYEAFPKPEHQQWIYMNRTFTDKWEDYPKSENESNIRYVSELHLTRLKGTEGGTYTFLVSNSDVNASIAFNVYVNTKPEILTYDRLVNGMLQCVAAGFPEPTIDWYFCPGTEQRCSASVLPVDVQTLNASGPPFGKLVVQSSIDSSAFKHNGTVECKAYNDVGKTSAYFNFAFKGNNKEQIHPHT

[5] = target: T4, Human cKIT D1-5 (human cKIT tr. variant 2, residues 26-520, C-terminal His tag) (human, UniProt P10721 26-524); test: as above
T4 construct: also called human cKIT ECD; Human c-Kit ECD
T4 sequence (P10721 other isoform, or with tags, fused parts or gaps mutant limits assumed): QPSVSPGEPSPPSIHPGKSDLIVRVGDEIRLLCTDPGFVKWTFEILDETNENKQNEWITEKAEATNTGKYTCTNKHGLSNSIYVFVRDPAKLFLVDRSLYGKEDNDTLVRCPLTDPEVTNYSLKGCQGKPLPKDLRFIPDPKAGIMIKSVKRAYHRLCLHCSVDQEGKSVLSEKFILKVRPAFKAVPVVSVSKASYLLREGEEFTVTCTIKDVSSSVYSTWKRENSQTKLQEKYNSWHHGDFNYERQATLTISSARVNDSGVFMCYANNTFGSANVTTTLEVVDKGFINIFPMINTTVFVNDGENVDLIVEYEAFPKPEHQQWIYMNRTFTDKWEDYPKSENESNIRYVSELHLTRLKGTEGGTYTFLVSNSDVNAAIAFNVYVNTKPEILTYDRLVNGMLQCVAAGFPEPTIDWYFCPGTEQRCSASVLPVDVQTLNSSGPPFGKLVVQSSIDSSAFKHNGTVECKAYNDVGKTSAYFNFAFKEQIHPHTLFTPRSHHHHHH

Row | Molecule | GIST882 cell line (GIST882 cell line) | GIST430 cell line (GIST430 cell line) | also measured
1 | CN[C@@H](C)C(=O)N[C@H](C(=O)N1CCC[C@H]1c1nc(C(=O)c2ccc(F)cc2)cs1)C1CCCCC1 [NVP-LCL161] | Synergy (“Synergy” was indicated by a Loewe score of greater than 5) | Synergy (“Synergy” was indicated by a Loewe score of greater than 5) | –
2 | COc1cccc(-c2cc(F)ccc2[C@H]2Cc3nc(N)nc(C)c3C(=O)N2)n1 [NVP-HSP990] | Additivity (“Additivity” was indicated with a Loewe score of less than 5) | Additivity (“Additivity” was indicated with a Loewe score of less than 5) | –
3 | Nc1cc(C(F)(F)F)c(-c2cc(N3CCOCC3)nc(N3CCOCC3)n2)cn1 [NVP-BKM120, 4-(trifluoromethyl)-5-(2,6-dimorpholinopyrimidin-4-yl)pyridin-2-amine] | Synergy (“Synergy” was indicated by a Loewe score of greater than 5) | Additivity (“Additivity” was indicated with a Loewe score of less than 5) | –
4 | Nc1ccn([C@@H]2O[C@H](CO)[C@@H](O)[C@@H]2O)c(=O)n1 [ARA-C (cytarabine), cytarabine, reference compound] | – | – | Mean change of body weight (from day 67, % ± SEM) ([1]; Day 71, 50 mg/kg Daily × 6 days, intraperitoneally): 2.3 ± 2.3%; anti-tumor activity (leukemic burden) ([1]; NSG mice, intraperitoneally daily for 6 days): efficacious in three of the animals; bodyweight loss ([1]; intraperitoneally daily for 6 days, in three of six animals): > 20%; Mean change of tumor volume (% CD45 positive PBMC's ± SEM) ([1]; mouse, in vivo): −6.6 ± 2.1 % CD45 positive PBMC's; Regression (%) ([1]; mouse, in vivo): −52.5%
5 | COc1ccc(-c2ccc3c(N4CCOC[C@@H]4C)nc(N4CCOC[C@@H]4C)nc3n2)cc1CO [NVP-CCG168] | Additivity (“Additivity” was indicated with a Loewe score of less than 5) | Additivity (“Additivity” was indicated with a Loewe score of less than 5) | –
6 | CO[C@H]1C[C@@H]2CC[C@@H](C)[C@@](O)(O2)C(=O)C(=O)N2CCCC[C@H]2C(=O)O[C@H]([C@H](C)C[C@@H]2CC[C@@H](OCCO)[C@H](OC)C2)CC(=O)[C@H](C)/C=C(\C)[C@@H](O)[C@@H](OC)C(=O)[C@H](C)C[C@H](C)/C=C/C=C/C=C/1C [Afinitor ®, Everolimus] | Synergy (“Synergy” was indicated by a Loewe score of greater than 5) | Synergy (“Synergy” was indicated by a Loewe score of greater than 5) | –
7 | Cn1c(=O)n(-c2ccc(C(C)(C)C#N)cc2)c2c3cc(-c4cnc5ccccc5c4)ccc3ncc21 [NVP-BEZ235, 2-Methyl-2-[4-[3-methyl-2-oxo-8-(quinolin-3-yl)-2,3-dihydroimidazo[4,5-c]quinolin-1-yl]phenyl]propionitrile] | Synergy (“Synergy” was indicated by a Loewe score of greater than 5) | Additivity (“Additivity” was indicated with a Loewe score of less than 5) | –
8 | C[C@@H]1CN(c2ccc(Nc3ncc4ccn(-c5cc(F)c(CN6CCOCC6)c(F)c5)c4n3)cn2)C[C@H](C)N1 [NVP-BVB808] | Additivity (“Additivity” was indicated with a Loewe score of less than 5) | Additivity (“Additivity” was indicated with a Loewe score of less than 5) | –
9 | CCN(CC)CCNC(=O)c1c(C)[nH]c(/C=C2\C(=O)Nc3ccc(F)cc32)c1C [Sutent ®, Sunitinib] | Additivity (“Additivity” was indicated with a Loewe score of less than 5) | Additivity (“Additivity” was indicated with a Loewe score of less than 5) | –
10 | Cc1nc(NC(=O)N2CCC[C@H]2C(N)=O)sc1-c1ccnc(C(C)(C)C(F)(F)F)c1 [NVP-BYL719] | Synergy (“Synergy” was indicated by a Loewe score of greater than 5) | Synergy (“Synergy” was indicated by a Loewe score of greater than 5) | –
11 | B1 | – | – | binding result [2]: no binding (tested: 3.125-50 nM of cKIT ECD injected); binding result [3]: no binding (tested: 3.125-50 nM of cKIT ECD injected); Kd [4]: 1.39 nM; Kd [5]: 1.13 nM
12 | B2 | – | – | binding result [2]: no binding (tested: 3.125-50 nM of cKIT ECD injected); binding result [3]: no binding (tested: 3.125-50 nM of cKIT ECD injected); Kd [5]: 1.34 nM
